Source: ChEMBL document CHEMBL1141488, “Modifying the glycosidic linkage in digitoxin analogs provides selective cytotoxins” (Bioorg Med Chem Lett, 2008)
pIC50: −log10 of the molar value.

What was measured:
[1] = tested on: HT-29; assay: Cytotoxicity against human HT29 cells; format: functional, cell-based
[2] = tested on: NCI/ADR-RES; assay: Cytotoxicity against human NCI/ADR-RES cells; format: functional, cell-based

Compound	pIC50 [1]	pIC50 [2]
C[C@]12CC[C@H](N(OCc3ccccc3)OC3OC[C@H](O)[C@@H](O)[C@@H]3O)C[C@H]1CC[C@@H]1[C@@H]2CC[C@]2(C)[C@@H](C3=CC(=O)OC3)CC[C@]12O (stereo partly drawn)	< 6.00	
CC(C)ON(OC1OC[C@H](O)[C@@H](O)[C@@H]1O)[C@H]1CC[C@@]2(C)[C@H](CC[C@@H]3[C@@H]2CC[C@]2(C)[C@@H](C4=CC(=O)OC4)CC[C@]32O)C1 (stereo partly drawn)		6.92
CC(C)ON(OC1OC[C@H](O)[C@H](O)[C@@H]1O)[C@H]1CC[C@@]2(C)[C@H](CC[C@@H]3[C@@H]2CC[C@]2(C)[C@@H](C4=CC(=O)OC4)CC[C@]32O)C1 (stereo partly drawn)		6.96
